In patent US20200102349A1, “PEPTIDE REAGENTS AND METHODS FOR DETECTION AND TARGETING OF DYSPLASIA, EARLY CANCER AND CANCER” (THE REGENTS OF THE UNIVERSITY OF MICHIGAN, priority 2014, published 2020):
Where no end group is shown, it is not given here.

Experiments:
tumor xenograft = settings: systemic administration; cited from earlier work
EGFR [1] = molecular target: T1, EGFR (Homo sapiens, UniProt P00533); assay: siRNA knockdown of EGFR in HT29 cells, confocal fluorescence microscopy; assay type: cell-based; design: endogenous in cells; host or cells: HT29 human colorectal adenocarcinoma cells (ATCC)
Description: (§1) HT29, SW480, and SW620 cells (˜10^3) were grown on cover slips to ˜80% confluence. The cells were washed 1× with PBS and incubated with 5 μM of QRH*-Cy5.5 and PEH*-Cy5.5 for 3 min at RT. The cells were then washed 3× in PBS, fixed with 4% paraformaldehyde (PFA) for 5 min, washed 1× with PBS, and then mounted on glass slides with ProLong Gold reagent containing DAPI (Invitrogen). Confocal fluorescence images were collected with FITC, Cy5.5, and DAPI filters (Leica Inverted SPSX Confocal Microscope System) using a 63× oil-immersion objective. Fluorescence intensities from 5 cells in 2 independent images were quantified using custom Matlab (Mathworks) software.
We used siRNA to knockdown expression of EGFR in HT29 cells. We used ON-TARGETplus human EGFR siRNA and ON-TARGETplus non-targeting pool (Thermo Scientific) per manufacturer's protocol. 5 μL of siRNA at 5 μM/L concentration was transfected into HT29 cells using DharmaFECT (Thermo Scientific). QRH*-Cy5.5 and PEH*-Cy5.5 were incubated with HT29 siEGFR and siCL cells. The cells were fixed with either 4% PFA or methanol. A 1:1000 dilution of primary monoclonal mouse anti-EGFR antibody (Thermo Scientific, # MS-396, clone 199.12, IgG2a isotype) was incubated overnight at 4° C. Afterwards, the cells were washed 3× with PBS, and further incubated with 1:500 dilution of AF488-labeled secondary goat anti-mouse IgG antibody (Life Technologies, # A-11029) for 1 hour at RT, washed 3×, and then mounted on glass slides with ProLong Gold reagent containing DAPI (Invitrogen). Confocal fluorescence images were collected with FITC, Cy5.5, and DAPI filters using a 63× oil-immersion objective.
We validated specific binding of QRH*-Cy5.5 to EGFR on siRNA knockdown in HT29 cells. On confocal microscopy, QRH*-Cy5.5 (red), FIG. 2A, and AF488-labeled anti-EGFR (green), FIG. 2B, bind strongly to the surface (arrows) of control HT29 cells (transfected with siCL, non-targeting siRNA), scale bars 30 μm. […] The results (mean±std) for QRH*-Cy5.5, anti-EGFR AF488, and PEH*-Cy5.5 to control cells (siCL) were 7.8±1.7, 3.1±1.0, and 1.6±0.3 AU, respectively, and to EGFR knockdown cells (siEGFR) were 2.5±0.8, 1.0±0.4, and 1.9±0.7 AU, respectively, *P<0.01 by paired t-test, FIG. 2G. Results are an average of 10 cells from 2 images performed independently. EGFR expression is shown on Western blot, FIG. 12H.

SW620 cells = assay: Peptide binding to colorectal cancer cells on confocal microscopy (SW620); assay type: cell-based, human; settings: SW620, 5 μM, 3 min
Description: as §1
(§2) We assessed binding of QRH*-Cy5.5 to a panel of colorectal cancer cells that vary in EGFR expression level on confocal microscopy. We observed binding of QRH*-Cy5.5 to the surface (arrows) of HT29, SW480, and SW620 cells with decreasing strength, FIG. 3A-C, scale bars 30 μm. […] Results are an average of 10 cells from 2 independent images. EGFR expression is shown on Western blot, FIG. 3H.

HT29 cells [2] = assay: Peptide binding to colorectal cancer cells on confocal microscopy (HT29); assay type: cell-based, human; settings: HT29, 5 μM, 3 min
Description: as §1, §2

SW480 cells = assay: Peptide binding to colorectal cancer cells on confocal microscopy (SW480); assay type: cell-based, human; settings: SW480, 5 μM, 3 min
Description: as §1, §2

[3] = test system: colonic dysplasia (flat lesions and polyps); assay: In vivo NIR fluorescence endoscopy of colon in CPC;Apc mouse; settings: for mean (±SD) log of the T/B ratio: topical 100 μM, 5 min incubation
Description: For the in vivo fluorescence images of mouse colon, the T/B ratios for flat dysplasia and polyps were log-transformed to improve normality. The fold-change between classification pairs was estimated using the anti-log of the difference in the log-transformed data. Differences in results between the experimental and control peptides were evaluated on t-test. *P<0.05 was considered significant. Similar methods were used to evaluate the ex vivo fluorescence images of human colonic specimens. The results were plotted on a receiver-operator characteristic (ROC) curve. Co-localization of peptide and antibody binding was evaluated on Pearson's correlation coefficient. All analyses were performed using custom Matlab software (MathWorks Inc).
Mouse imaging studies were performed with approval of the University of Michigan Committee on the Use and Care of Animals (UCUCA). The mice were housed in pathogen-free conditions and supplied water ad libitum under controlled conditions of humidity (50±10%), light (12/12 hour light/dark cycle) and temperature (25° C.). Anesthesia was induced and maintained via a nose cone with inhaled isoflurane mixed with oxygen at a concentration of 2-4% at a flow rate of ˜0.5 L/min. The colon was first rinsed with tap water to remove mucous and debris. White light illumination was used first to identify anatomic landmarks, including polyps, mucosal folds, colonic segment, and distance of endoscope tip from anus, to register images with histology. The Cy5.5-labeled peptides were delivered at a concentration of 100 μM in a volume of 1.5 mL through the 3 Fr instrument channel. After 5 min for incubation, the colon was rinsed 3× with a tap water to remove the unbound peptides. After imaging was completed, the mice were euthanized. The colon was resected, and divided along the longitudinal axis. Flat lesions and polyps were identified on fluorescence, excised perpendicular to the mucosal surface, and processed for histology (H&E). We collected images from mice (n=5) that ranged in age from 7 to 10 months.
Imaging was performed using a small animal endoscope (Karl Storz Veterinary Endoscopy).^39 A xenon light source provides white light illumination via a fluid light cable. A diode-pumped solid state laser (TechnicaLaser Inc) provides excitation at λex=671 nm. The laser beam is expanded to a diameter of 3 mm to fill the aperture of the light cable. The laser power at the tip of the endoscope is <2 mW. The white light images reflect off a dichroic mirror (Semrock Inc, # FF685-Di02-25×36, λc=685 nm), and are focused by an achromatic doublet (Edmund Optics Inc, #32-323). They pass through a neutral density filter (OD 1), and are detected by a color camera (Point Grey Research, # GX-FW-28S5C-C). The fluorescence images pass through the dichroic and a band pass filter (Semrock Inc, # FF01-716/40-25, λC=716 nm, Δλ=40 nm), and are focused on a monochrome camera (Point Grey Research, # GX-FW-28S5M-C). All videos (1932×1452 resolution) are recorded at 15 frames per sec via a firewire connection.
White light and fluorescence videos were exported in avi format with 24 (RGB) and 8 (grayscale) bit digital resolution for the color and fluorescence images, respectively. […] Individual frames were exported using custom Matlab software. On the fluorescence images, 3 regions of interest (ROI, 25×25 pixels) were picked at random within the dysplastic lesion and within adjacent areas of normal-appearing mucosa. The mean intensities within these ROI's on the fluorescence images were measured. The target to-background (T/B) ratio for each image was determined by ratioing the mean intensities of these two ROIs.

HT29 cells [4] = assay: Competition for peptide binding with unlabeled peptide; assay type: cell-based, human; settings: unlabeled peptide 0-500 μM, then 5 μM QRH*-Cy5.5, 4° C.
Description: Specific binding of QRH*-Cy5.5 to HT29 cells was validated on competitive inhibition with unlabeled QRH* peptide. A total of −10^3 HT29 cells were grown to −70% confluence on cover slips in triplicate. Unlabeled QRH* and PEH* peptide at 0, 50, 100, 150, 250, and 500 μM were added and incubated with the cells for 30 min at 4° C. The cells were washed and incubated with 5 μM of QRH*-Cy5.5 for another 30 min at 4° C. The cells were washed and fixed with 4% PFA for 5 min. The cells were washed with PBS and mounted with ProLong Gold reagent containing DAPI (Invitrogen). Fluorescence images were collected at each concentration using a 63× objective (Zeiss Axioskop 2 plus microscope), and intensities from 5 cells in 2 independent images were quantified using custom Matlab (Mathworks) software.

HT29 cells [5] = assay: Apparent association time constant on flow cytometry; assay type: binding, human
Description: We measured the apparent association time constant of the peptide to HT29 cells as an assessment of binding onset. HT29 cells were grown to […] confluence in 10 cm dishes, and detached with PBS-based cell dissociation buffer (Invitrogen). Cells (˜10^5) were incubated with 5 μM QRH*-Cy5.5 at 4° C. for various time intervals ranging from 0 to 20 min. The cells were centrifuged, washed with cold PBS, and fixed with 4% PFA. Flow cytometry analysis was performed as described above, and the median fluorescence intensity (y) was ratioed with that of HT29 cells without addition of peptide at different time points (t) using Flowjo software. The rate constant k was calculated by fitting the data to a first order kinetics model, y(t)=Imax[1−exp^(−kt)], where Imax=maximum value,^60 using Prism 5.0 software (GraphPad Inc).

HT29 cells [6] = assay: Apparent dissociation constant on flow cytometry; assay type: binding, human; settings: 4° C., 1 hour
Description: We measured the apparent dissociation constant of the peptide to HT29 cells as an assessment of binding affinity. QRH*-Cy5.5 was serially diluted in PBS at concentrations of 0, 10, 25, 50, 75, 100, 125, 150 and 200 nM. HT29 cells (˜10^5) were incubated with QRH*-Cy5.5 at 4° C. for 1 hour, washed with cold PBS, and the mean fluorescence intensities were measured on flow cytometry. The equilibrium dissociation constant kd=1/ka was calculated by performing a least squares fit of the data to the non-linear equation […]. I0 and Imax are the initial and maximum fluorescence intensities, corresponding to no peptide and at saturation, respectively, and [X] represents the concentration of the bound peptide [Thomas et al., Clin Exp Metastasis, 26:105-119 (2009)]. Origin 6.1 data analysis software (OriginLab Corp) was used to calculate kd.

[7] = test system: OE21 human esophageal SCC cells; assay: Binding of FITC-labeled peptide to esophageal SCC cells on confocal microscopy; assay type: cell-based
Description: We have further validated specific binding of the FITC-labeled peptide to EGFR on co-localization with anti-EGFR antibody. A total of ˜7.5×10^3 OE21 cells were grown to ˜70% confluence on cover slips and fixed with methanol for 5 min at ˜20° C. The cells were incubated for 2 hours at RT with 1:500 dilution of primary anti-EGFR mAb (199.12, Neomarkers). The cells were incubated with 1:500 dilution of secondary Cy5.5-labeled antibody for 1 hour at RT, and mounted with ProLong Gold with DAPI (Invitrogen). On confocal microscopy, we observe specific binding of Cy5.5-labeled anti-EGFR antibody (red) to the membrane (arrow) of OE21 cells, FIG. 8A. We then added the FITC-labeled peptide to the OE21 cells. After 10 min for incubation at 37° C., co-localization of the peptide (green) with the antibody (red) to the membrane (arrow) of OE21 cells can be observed, FIG. 8B.

EGFR [8] = molecular target: T1, EGFR; settings: read-out: binding affinity; cited from earlier work

## CMYIEALDKYAC
Tumor xenograft
  time of peak accumulation / binding activity in tumor xenograft after injection: 8 h

## LARLLT
Tumor xenograft
  time of peak accumulation / binding activity in tumor xenograft after injection: ~80 h

## PEH*-Cy5.5: scrambled sequence PEHKRRQ (SEQ ID NO: 19) for control, Cy5.5-labeled (also: Cy5.5 label, site not given here) [reference compound]
EGFR [1]; EGFR knockdown HT29 cells (siEGFR)
  fluorescence intensity (mean±std): 1.9±0.7 AU
EGFR [1]; control HT29 cells (siCL, non-targeting siRNA)
  fluorescence intensity (mean±std): 1.6±0.3 AU
SW620 cells
  fluorescence intensity of binding (mean±std): 0.8±0.3
HT29 cells [2]
  fluorescence intensity of binding (mean±std): 1.7±0.4
SW480 cells
  fluorescence intensity of binding (mean±std): 1.2±0.3
[3]; flat lesions (n=15)
  mean (±SD) log of the T/B ratio: 0.108±0.143
[3]; polyps (n=15)
  mean (±SD) log of the T/B ratio: 0.186±0.233
[3]; topical, distal colon, 5 min
  NIR fluorescence signal from polyp and flat lesions in vivo: minimal signal

## PEH*: unlabeled PEH* (control) (PEHKRRQGGGSK) [reference compound]
HT29 cells [4]
  change of fluorescence intensity of QRH*-Cy5.5 binding on addition of unlabeled peptide: no change

## QRH*: unlabeled QRH* peptide (QRHKPREGGGSK)
HT29 cells [4]
  change of fluorescence intensity of QRH*-Cy5.5 binding on addition of unlabeled peptide: decrease in a concentration dependent manner

## QRHKPRE
HT29 cells [5]
  binding time scale (onset): < 2.5 min
HT29 cells [5]; 5 μM, 4° C., flow cytometry
  apparent association time constant k: 0.406 min⁻¹
HT29 cells [6]
  Kd: 50 nM

## SHR*-FITC: FITC labeled SHRNRPRNTQPS (SHR*) (SEQ ID NO: 21) peptide (also: FITC label, site not given here)
[7]
  binding on confocal fluorescence microscopy: significantly increased fluorescence intensity
[7]; 10 min, 37° C.
  co-localization with Cy5.5-labeled anti-EGFR antibody: co-localization

## YHWYGYTPQNVI
Tumor xenograft
  time of peak accumulation / binding activity in tumor xenograft after injection: 4 h
EGFR [8]
  Kd: 22 nM
